Data taken from patent publication US20210299150A1, “AP39 IMPACT ON MITOCHONDRIA, METABOLISM, GENE TRANSCRIPTION REGULATION, CARDIOTOXICITY PROTECTION AND CANCER TREATMENT” (priority 2020, published 2021).

Legend:
[1] = system: SK-N-BE(2) neuroblastoma cell line; assay: Cell viability (images, MTT) of SK-N-BE(2) neuroblastoma cell line; format: cell-based, human
Description: (§1) Methods for cell viability: Cells were plated in 96 wells/6 wells cell culture plates. After 24 hrs of plating, the treatments (added in the growth medium) were conducted. The following assays were performed after 24 hrs of the treatments (day 2). (FIGS. 15A, 17-20, 24-27)
(§2) MTT assay methods. For the MTT assay, […] of 5 mg/ml MTT-tetrazolium salts in PBS was added to each well containing the growth medium. After 3 hours of incubation, the medium was removed and the formazan crystals were dissolved by adding DMSO. The absorption of the formazan solution was measured using a spectrophotometer at a wavelength of 570 nm. FIGS. 15B, 21-22.
The SK-N-BE(2) neuroblastoma cell line was exposed to control, AP39 (AP) at 40 or 60 μM, Doxorubicin at 2.5 or 20 μM, thiolactate at 10 mM, AP39 and Doxorubicin, AP39 and thiolactate, or Doxorubicin and Thiolactate. […] FIGS. 17, 21, 24-25.

hiPSC-CMs = assay: DIC in hiPSC-CMs (Annexin V, MitoSox Red); format: cell-based, human
[2] = 13C-glucose isotope tracing and GC-MS metabolite quantification; format: cell-based
Description: Stable isotope (13C glucose) tracer studies. Heatmap.
To this end, 13C-glucose flux/isotope tracing and quantified metabolites through GC-MS were examined at 16 hrs and 24 hrs after the treatments. Glucose, glutamine and lactate were also measured in supernatants at these time points. […] With the exception of glycolytic metabolites, the remaining metabolic pathways (poor labeling) were non-operational after Dox treatment (FIG. 10A).
When considered AP39-mediated activation of AMPK, H2S is selectively halting energy consuming anabolic pathways, such as protein synthesis (also, lipid, AMPK inhibits […], a rate limiting lipid synthesizing enzyme, FIGS. 7A and B), as observed before^41, thus leading to accumulation of amino acids and is enhancing TCA cycle through AMPK activation. The net result is better energy management with AP39/H2S treatment.

[3] = system: SK-N-BE(2) and SK-N-BE(1) cell lines; details: previous study; cited from earlier work
[4] = cited from earlier work
[5] = system: Myc/Max-regulated transcripts; assay: RNAseq analysis in H9C2 cell line; format: cell-based, Rat; details: H9C2, Dox alone
Description: The coverage among groups are indicated.
Next, to interrogate mechanisms of AP39 protection against DIC, RNAseq analysis was performed. There was sufficient coverage of the whole transcriptome among the groups (FIG. 8A).

H9C2 cells [6] = assay: Mitochondrial ROS, MitoSox Red, H9C2; format: cell-based, Rat; details: H9C2, Dox alone
Description: AP39 treatment also ameliorated Dox toxicity in a model of Rat cardiomyoblast cell line, H9C2. […] There was a narrow window of protection, as 30 μM and 50 μm doses were not as strong as the 40 μM dose (FIGS. 5A and B) in conferring protection. […] Note that Dox caused an apoptotic phenotype in correlation with ROS levels (FIG. 5F, Dox lane). This in vitro AP39 protection is modest when compared to the in vivo scenario. This difference may be due to rapid clearance of toxic metabolites (for instance, higher lactate production, FIG. 10D) and better oxygen supply (AP39 stimulated OCR, FIG. 7C) in vivo and lack of such sophistication in vitro.

H9C2 cells [7] = assay: Mitochondrial H2S levels (AzMAC) and morphology (mitotracker Red) in H9C2 cells; format: cell-based, Rat; details: H9C2, single agent vs control
Source text: Note that white arrow heads and yellow arrows compare and contrast no-H2S: fusion and H2S-presence: fission scenarios in the same image AP39 treatment lane.
Mitochondrial fission was correlated with H2S levels. To investigate the impact of Dox on mitochondrial biogenesis and mitochondrial H2S levels, H9C2 cells were used in combination with H2S sensitive dye AzMAC and mitotracker Red dye as reported previously^8. […] Further, H2S levels (yellow arrows) highly correlated with a dotted appearance of mitochondria, implying that H2S causes mitochondrial fission, which is a prerequisite for eliminating damaged mitochondria^49.

MCF7 breast cancer cells = assay: Cell viability (MTT, crystal violet) of MCF7 breast cancer cells; format: cell-based
Description: as §1, §2
Crystal Violet (CV) assay. For the CV Staining assay, cells were stained with 0.5% crystal violet in 30% ethanol for 10 minutes at room temperature after removal of the medium. The cells were lysed in a 1% SDS (sodium dodecyl sulfate) solution. The absorbance of the solution was measured using a spectrophotometer at a wavelength of 595 nm. FIG. 27.
MCF7 breast cancer cells were exposed to control, AP39 (AP) at 40 or 60 μM, Doxorubicin at 2.5 or 20 μM, thiolactate at 10 mM, AP39 and Doxorubicin, AP39 and thiolactate, or Doxorubicin and Thiolactate. […] FIGS. 26-27.

A549 lung cancer cells = assay: Cell viability of A549 lung cancer cells; format: cell-based
Description: as §1, §2
A549 lung cancer cells were exposed to control, AP39 (AP) at 40 or 60 μM, Doxorubicin at 2.5 or 20 μM, thiolactate at 10 mM, AP39 and Doxorubicin, AP39 and thiolactate, or Doxorubicin and Thiolactate. […] FIGS. 19 and 21.

[8] = system: 786-O cells renal cancer cells; assay: Cell viability of 786-O renal cancer cells; format: cell-based
Description: as §1, §2
786-O cells renal cancer cells were exposed to control, AP39 (AP) at 40 or 60 μM, Doxorubicin at 2.5 or 20 μM, thiolactate at 10 mM, AP39 and Doxorubicin, AP39 and thiolactate, or Doxorubicin and Thiolactate. […] FIGS. 18 and 21.

H1299 lung cancer cells = assay: Cell viability of H1299 lung cancer cells; format: cell-based
Description: as §1, §2
H1299 lung cancer cells were exposed to control, AP39 (AP) at 40 or 60 μM, Doxorubicin at 2.5 or 20 μM, thiolactate at 10 mM, AP39 and Doxorubicin, AP39 and thiolactate, or Doxorubicin and Thiolactate. […] FIGS. 20-22.

[9] = AP39 40 or 60 μM, thiolactate 10 mM, 24 hrs
[10] = combination with Doxorubicin 2.5 μM

## COc1cccc2c1C(=O)c1c(O)c3c(c(O)c1C2=O)C[C@@](O)(C(=O)CO)C[C@@H]3O[C@H]1C[C@H](N)[C@H](O)[C@H](C)O1 [Dox, Doxorubicin]
[1]; AP39 used along with Dox
  effective Dox dose: 2.5 µM
[1]; Dox alone, 24 hrs
  IC70 of Dox: 20 µM
hiPSC-CMs; 2.5 μM Dox, donor, data not showed
  DIC in hiPSC-CMs at lower dose of Dox: exhibited resistance to DIC
hiPSC-CMs; 7.5 μM Dox, 48 hrs
  cell death in hiPSC-CMs: significant cell death
[2]; 16 hrs and 24 hrs
  Serine and glycine 13C labeling: highly labeled
[2]; 24 hrs of Dox treatment
  abundance of most metabolites (GC-MS): present in abundant amounts
[3]
  IC90 for SK-N-BE(2) relative to IC90 for SK-N-BE(1): 9230 times
[4]; after Dox treatment
  late cardiac dysfunction incidence: 16%
  sub-clinical disease rate: over 50%
[4]; within 18 months of Dox treatment
  Cumulative left ventricular systolic dysfunction (LVSD) incidence rate: 12%
[5]
  Myc transcription: attenuated Myc transcription
H9C2 cells [6]
  mitochondrial ROS levels: elevating damaging ROS levels
H9C2 cells [7]
  mitochondrial H2S levels (AzMAC): significantly reduced mitochondrial H2S production
  mitochondrial morphology (fission / fusion): mitochondrial fusion

## CC(S)C(=O)O (stereo not drawn) [thiolactate, Thiolactate]
[1]; [9]
  cell killing, agent alone: able to kill SK-N-BE(2) cells
[1]; [10]
  potency of low doses of Doxorubicin: able to increase the potency of low doses of Doxorubicin
MCF7 breast cancer cells; [9]
  cell killing, agent alone: able to kill breast cancer cells
MCF7 breast cancer cells; [10]
  potency of low doses of Doxorubicin: able to increase the potency of low doses of Doxorubicin
A549 lung cancer cells; [9]
  cell killing, agent alone: able to kill lung cancer cells
A549 lung cancer cells; [10]
  potency of low doses of Doxorubicin: able to increase the potency of low doses of Doxorubicin
[8]; [9]
  cell killing, agent alone: able to kill renal cancer cells
[8]; [10]
  potency of low doses of Doxorubicin: able to increase the potency of low doses of Doxorubicin
H1299 lung cancer cells; [9]
  cell killing, agent alone: able to kill lung cancer cells
H1299 lung cancer cells; [10]
  potency of low doses of Doxorubicin: able to increase the potency of low doses of Doxorubicin
